How the values were obtained:
[1] = test system: human foreskin fibroblasts (HFFs); assay: WST-1 Cell Proliferation Assay; type: cell-based
Procedure: (§1) The following results relate to the analysis of senescence tests on 1,5-Dicaffeoylquinic Acid (1,5-DCQA). FIG. 8 relates to 1,4-DCQA. The experiments were conducted using human foreskin fibroblasts (HFFs).
The WST-1 Cell Proliferation Assay provides a sensitive and accurate assay for cell proliferation and cytotoxicity (cell viability). The WST assay is based on the cleavage of the tetrazolium salt WST-1 to formazan by cellular mitochondrial dehydrogenases. Expansion in the number of viable cells results in an increase in the overall activity of the mitochondrial dehydrogenases in the sample. The augmentation in enzyme activity results in an increase in the amount of formazan dye formed. The formazan dye produced by viable cells was quantified by a multi-well spectrophotometer by measuring the absorbance of the dye solution at 440 nm. The compound provided was tested in the WST assay over a range of dilutions. […] The results of the assay show the standard deviation (SD) for 1,5-DCQA and the control, and the mean values for 1,5-DCQA and the control.

p16 = assay: Taqman Real Time-PCR expression of p16 in HFFs with and without H2O2 stress-induced premature senescence; type: cell-based, human
Procedure: as §1
(§2) In the following experiments, HFFs were challenged for a period of two hours with 150 μM hydrogen peroxide (H2O2), to stimulate premature senescence in the presence and absence of 1,5-DCQA (1/1000 dilution), and subsequently assayed by Taqman Real Time-PCR for the expression of key senescence associated genes.
(§3) The results shown in Table 2 and FIGS. 2 to 7 were generated using the polymerase chain reaction (PCR), wherein the dCt and ddCT values are results used in statistical analysis. The abbreviation dCt relates to “delta cycle threshold” and the abbreviation ddCt relates to “delta delta cycle threshold”. In these experiments, HPRT (hypoxanthine phosphoribosyltransferase, a protein from the HPRT-1 gene) was used as a control.

Sirtuin 2 (SIRT2) = assay: Taqman Real Time-PCR expression of Sirtuin 2 in HFFs with and without H2O2 stress-induced premature senescence; type: cell-based, human; conditions: without stress, FIG. 6
Procedure: as §1, §2
(§4) These genes are involved in cell cycle regulation and mitochondrial stress responses. Challenge with a near lethal level of oxidant stress typically induces an increase in SIRT2 and decrease in SIRT3 expression. […] This is indicative of each having a potential for stimulating cell proliferation in the absence of oxidant challenge.
as §3

Sirtuin 3 (SIRT3) = assay: Taqman Real Time-PCR expression of Sirtuin 3 in HFFs with and without H2O2 stress-induced premature senescence; type: cell-based, human; conditions: following oxidant challenge, FIG. 7
Procedure: as §1, §2, §4, §3

XRCC5 = assay: Taqman Real Time-PCR expression of XRCC5 in HFFs with and without H2O2 stress-induced premature senescence; type: cell-based, human; conditions: with and without 150 μM H2O2, FIG. 4
Procedure: as §1, §2
XRCC5 is a double strand break repair protein.
as §3

Compound: O=C(/C=C/c1ccc(O)c(O)c1)O[C@@H]1C[C@](OC(=O)/C=C/c2ccc(O)c(O)c2)(C(=O)O)C[C@@H](O)[C@H]1O [1,5-DCQA, 1,5-Dicaffeoylquinic Acid]
- effect on cell viability (WST assay) ([1]; 1/1000 and 2/1000 dilutions): beneficial to cell viability
- Mean (WST-1 assay, absorbance at 440 nm) ([1]; dilution 1/1000): 0.916
- Mean (WST-1 assay, absorbance at 440 nm) ([1]; dilution 2/1000): 0.868
- Mean (WST-1 assay, absorbance at 440 nm) ([1]; dilution 3/1000): 0.717
- Mean (WST-1 assay, absorbance at 440 nm) ([1]; dilution 4/1000): 0.363
- Mean (WST-1 assay, absorbance at 440 nm) ([1]; dilution 5/1000): 0.178
- Mean (WST-1 assay, absorbance at 440 nm) ([1]; dilution 6/1000): 0.300
- Mean (WST-1 assay, absorbance at 440 nm) ([1]; dilution 7/1000): 0.419
- Mean (WST-1 assay, absorbance at 440 nm) ([1]; dilution 8/1000): 0.196
- Mean (WST-1 assay, absorbance at 440 nm) ([1]; dilution 9/1000): 0.115
- Mean (WST-1 assay, absorbance at 440 nm) ([1]; dilution 10/1000): 0.069
- effect on p16 expression following oxidant challenge (p16; 150 μM H2O2, FIG. 2): excellent protection from oxidant challenge
- effect on p16 expression in untreated cells (p16; no H2O2, FIG. 2): no stress effect on untreated cells
- change in SIRT2 expression (Sirtuin 2 (SIRT2)): significant decrease in SIRT2 expression
- change in SIRT3 expression (Sirtuin 3 (SIRT3)): increase in SIRT3 expression
- expression of XRCC5 in comparison with the control data set (XRCC5): substantially unaltered expression

Reference: US10973794B2, “Dental composition and use” (CALSCIENCE INTERNATIONAL LTD., priority 2015, dated 2021)
